# Measured values as given in patent EP2293808B1, “AN SYNTHETIC PEPTIDE CONTAINING BONE FORMING PEPTIDE 1(BFP 1) FOR STIMULATING OSTEOBLAST DIFFERENTIATION, AND PHARMACEUTICAL COMPOSITION COMPRISING THE SYNTHETIC PEPTIDE” (Industry Foundation Of Chonnam National University, priority 2008, dated 2012).
# Ends that are not written are not given here.
# Test system: cells
# Experiment: MTT assay for cytotoxicity
# Type: cell-based
# Settings: within a range of used concentrations, FIG. 3
sequence,measurement,value
"GQGFSYPYKAVFSTQ [BFP 1, Gly-Gln-Gly-Phe-Ser-Tyr-Pro-Tyr-Lys-Ala-Val-Phe-Ser-Thr-Gln]",cytotoxicity,not toxic to cells
